US12441768B2, “Compositions and methods for treating endometriosis” (EndoMet Biosciences, Inc., priority 2018, dated 2025)
Where a SMILES comes first, the peptide text is derived from it.

What was measured:
[1] = target: Wnt-responsive promoter (TCF/LEF); experiment: Wnt-dependent luciferase reporter assay; type: cell-based, murine
How it was run: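 EC50 (uM) derived from inhibition of luminescence in Wnt3a-stimulated murine 3T3 cells expressing luciferase under a TCF/LEF promoter, with peptides added across a concentration range and vehicle as control.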

β-catenin = target: T1, β-catenin (Homo sapiens, UniProt P35222); experiment: KD50 measurement using competitive fluorescence polarization (FP) with labelled TCF4; type: binding; settings: fluorescence polarization, β-catenin; for Kd: read-out: β-Cat FP KD
T1 sequence (P35222 1-781): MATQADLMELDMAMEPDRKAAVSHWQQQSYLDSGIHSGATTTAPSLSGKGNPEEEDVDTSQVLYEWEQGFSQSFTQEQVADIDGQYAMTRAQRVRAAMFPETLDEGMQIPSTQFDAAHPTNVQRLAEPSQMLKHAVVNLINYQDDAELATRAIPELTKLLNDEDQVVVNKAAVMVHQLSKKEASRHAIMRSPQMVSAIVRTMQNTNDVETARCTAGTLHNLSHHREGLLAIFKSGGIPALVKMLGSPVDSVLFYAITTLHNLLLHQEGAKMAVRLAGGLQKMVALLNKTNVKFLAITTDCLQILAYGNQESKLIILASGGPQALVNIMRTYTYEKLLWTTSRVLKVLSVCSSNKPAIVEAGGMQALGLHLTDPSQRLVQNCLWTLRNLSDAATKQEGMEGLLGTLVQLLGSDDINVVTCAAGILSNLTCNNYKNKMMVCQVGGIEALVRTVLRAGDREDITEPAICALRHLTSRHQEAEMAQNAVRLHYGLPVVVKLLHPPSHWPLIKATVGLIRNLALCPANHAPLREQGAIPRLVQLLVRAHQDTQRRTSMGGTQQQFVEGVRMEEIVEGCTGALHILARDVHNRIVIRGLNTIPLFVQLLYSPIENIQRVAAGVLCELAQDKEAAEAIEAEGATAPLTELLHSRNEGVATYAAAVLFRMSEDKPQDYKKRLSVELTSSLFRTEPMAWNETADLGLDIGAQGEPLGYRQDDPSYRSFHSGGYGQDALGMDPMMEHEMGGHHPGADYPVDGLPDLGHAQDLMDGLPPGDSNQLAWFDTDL
How it was run: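 Polarization readout (470 nm excitation, 520 nm emission) tracks loss of labelled TCF4 binding to β-catenin as test compound competes. Conditions were 5 nM tracer, 100 nM β-catenin, room temperature, compound serially diluted from 10 nM to 30 uM; run in triplicate experiments.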

[2] = % Viability non-Wnt responsive cells

SMILES	EC50 [1]	Kd (β-catenin)	β-Cat FP Hill slope (β-catenin)	viability [2]
CC[C@H](C)[C@H](NC(=O)[C@H](CC(C)C)NC(=O)[C@@H](NC(=O)[C@H](Cc1c[nH]c2ccccc12)NC(=O)[C@@H](N)CCSC)[C@@H](C)CC)C(=O)N[C@@H](CO)C(=O)N[C@@H](Cc1ccc(O)cc1)C(=O)N[C@@H](Cc1c[nH]c2ccccc12)C(=O)NCC(=O)O [compound 152] (H-MWILISYWG-OH)	< 7.5 µM	> 30 µM	–	114%
CC[C@H](C)[C@H](NC(=O)[C@H](CC(C)C)NC(=O)[C@@H](NC(=O)C(C)(Cc1c[nH]c2ccccc12)NC(=O)[C@@H](N)CCSC)[C@@H](C)CC)C(=O)N[C@@H](CO)C(=O)N[C@@H](Cc1ccccc1)C(=O)N[C@@H](Cc1c[nH]c2ccccc12)C(=O)NCC(=O)O (stereo partly shown) [compound 134] (HELM PEPTIDE1{M.[CC(Cc1c[nH]c2ccccc12)(N[*:1])C(=O)[*:2]].I.L.I.S.F.W.G}$$$$V2.0)	> 30 µM	1 to 10 µM	1.47	97.9%
CC[C@H](C)[C@H](NC(=O)[C@H](CC(C)C)NC(=O)[C@H](Cc1ccccc1)NC(=O)[C@H](Cc1c[nH]c2ccccc12)NC(=O)[C@H](CCSC)NC(=O)[C@H](CCCNC(=N)N)NC(=O)[C@H](CO)NC(=O)[C@@H](N)CCCNC(=N)N)C(=O)N[C@@H](CO)C(=O)N[C@@H](Cc1ccccc1)C(=O)N[C@@H](Cc1c[nH]c2ccccc12)C(N)=O [compound 84] (H-RSRMWFLISFW-NH2)	> 30 µM	> 30 µM	–	88.6%
CC[C@H](C)[C@H](NC(=O)[C@H](CC(C)C)NC(=O)[C@@H](NC(=O)[C@H](Cc1c[nH]c2ccccc12)NC(=O)[C@@H](N)CCSC)[C@@H](C)CC)C(=O)N[C@@H](CCO)C(=O)N[C@@H](Cc1ccccc1)C(=O)N[C@@H](Cc1c[nH]c2ccccc12)C(=O)NCC(=O)O [compound 144] (HELM PEPTIDE1{M.W.I.L.I.[O=C([C@H](CCO)N[*:1])[*:2]].F.W.G}$$$$V2.0)	< 7.5 µM	> 30 µM	–	106%
CC[C@H](C)[C@H](NC(=O)[C@H](CC(C)C)NC(=O)[C@@H](NC(=O)[C@H](Cc1c[nH]c2ccccc12)NC(=O)[C@H](CCSC)NC(=O)[C@@H](N)CCCCN)[C@@H](C)CC)C(=O)N[C@@H](CO)C(=O)N[C@@H](Cc1ccccc1)C(=O)N[C@@H](Cc1c[nH]c2ccccc12)C(=O)NCC(=O)O [compound 122] (H-KMWILISFWG-OH)	22.5 to 30 µM	< 0.4 µM	1.55	113%
CC[C@H](C)[C@H](NC(=O)[C@H](CC(C)C)NC(=O)[C@H](Cc1ccccc1)NC(=O)[C@H](Cc1c[nH]c2ccccc12)NC(=O)[C@H](CCSC)NC(=O)[C@H](CCCNC(=N)N)NC(=O)[C@H](CO)NC(=O)[C@@H](N)CCSC)C(=O)N[C@@H](CO)C(=O)N[C@@H](Cc1ccccc1)C(=O)N[C@@H](Cc1c[nH]c2ccccc12)C(=O)N[C@@H](CCCNC(=N)N)C(=O)NCC(=O)O [compound 58] (H-MSRMWFLISFWRG-OH)	22.5 to 30 µM	> 30 µM	–	106%
CC[C@H](C)[C@H](NC(=O)[C@H](CC(C)C)NC(=O)[C@@H](NC(=O)[C@H](Cc1c[nH]c2ccccc12)NC(=O)[C@@H](N)CCSC)[C@@H](C)CC)C(=O)N[C@@H](CO)C(=O)N[C@@H](CO)C(=O)N[C@@H](Cc1c[nH]c2ccccc12)C(=O)NCC(=O)O [compound 129] (H-MWILISSWG-OH)	< 7.5 µM	0.4 to 1 µM	0.87	134%

Continued, in another order:

EC50 [1]	Kd (β-catenin)	β-Cat FP Hill slope (β-catenin)	SMILES	viability [2]
7.5 to 15 µM	> 30 µM	–	CC[C@H](C)[C@@H]1NC(=O)[C@H](CC(C)C)NC(=O)[C@H](CC2CCCCC2)NC(=O)[C@H](Cc2c[nH]c3ccccc23)NC(=O)[C@@H](N)CCCCNC(=O)C[C@@H](C(=O)O)NC(=O)[C@H](Cc2c[nH]c3ccccc23)NC(=O)[C@H](C)NC(=O)[C@H](CO)NC1=O [compound 203] (HELM PEPTIDE1{K.W.[Cha].L.I.S.A.W.D}$PEPTIDE1,PEPTIDE1,1:R3-9:R3$$$V2.0)	98%
15 to 22.5 µM	< 0.4 µM	0.7	CC[C@H](C)[C@H](NC(=O)[C@H](CC(C)C)NC(=O)[C@H](Cc1ccccc1)NC(=O)[C@H](Cc1c[nH]c2ccccc12)NC)C(=O)N[C@@H](CO)C(=O)N[C@@H](Cc1ccccc1)C(=O)N[C@@H](Cc1c[nH]c2ccccc12)C(N)=O [compound 102] (HELM PEPTIDE1{[meW].F.L.I.S.F.W.[am]}$$$$V2.0)	101%
7.5 to 15 µM	< 0.4 µM	1.27	CC[C@H](C)[C@H](NC(=O)[C@H](CC(C)C)NC(=O)C(C)(Cc1ccccc1)NC(=O)[C@H](Cc1c[nH]c2ccccc12)NC(=O)[C@@H](N)CCSC)C(=O)N[C@@H](CS)C(=O)N[C@@H](Cc1ccccc1)C(=O)N[C@@H](Cc1c[nH]c2ccccc12)C(=O)NCC(=O)O (stereo partly shown) [compound 131] (HELM PEPTIDE1{M.W.[CC(Cc1ccccc1)(N[*:1])C(=O)[*:2]].L.I.C.F.W.G}$$$$V2.0)	93.1%
7.5 to 15 µM	1 to 10 µM	0.7	CC[C@H](C)[C@@H]1NC(=O)[C@H](CC(C)C)NC(=O)[C@H](Cc2ccccc2)NC(=O)[C@H](Cc2c[nH]c3ccccc23)NC(=O)[C@@H](N)CCCCNC(=O)CNC(=O)CC[C@@H](C(=O)NCC(=O)O)NC(=O)[C@H](Cc2c[nH]c3ccccc23)NC(=O)[C@H](Cc2ccccc2)NC(=O)[C@H](CS)NC1=O [compound 174] (HELM PEPTIDE1{K.W.F.L.I.C.F.W.E.G}|CHEM1{[O=C(CN[*:2])[*:1]]}$PEPTIDE1,CHEM1,1:R3-1:R1|PEPTIDE1,CHEM1,9:R3-1:R2$$$V2.0)	102%
> 30 µM	> 30 µM	–	CC[C@H](C)[C@H](NC(=O)[C@H](CC(C)C)NC(=O)[C@H](Cc1ccccc1)NC(=O)[C@H](Cc1c[nH]c2ccccc12)NC(=O)[C@H](CCSC)NC(=O)[C@H](CCCNC(=N)N)NC(=O)[C@H](CO)NC(=O)[C@@H](N)Cc1c[nH]cn1)C(=O)N[C@@H](CO)C(=O)N[C@@H](Cc1ccccc1)C(=O)N[C@@H](Cc1c[nH]c2ccccc12)C(N)=O [compound 89] (H-HSRMWFLISFW-NH2)	107%
< 7.5 µM	–	0.7	CC[C@H](C)[C@H](NC(=O)[C@H](CC(C)C)NC(=O)[C@@H](NC(=O)[C@H](Cc1c[nH]c2ccccc12)NC(=O)[C@H](CCSC)NCc1ccccc1)[C@@H](C)CC)C(=O)N[C@@H](CO)C(=O)N[C@@H](Cc1ccccc1)C(=O)N[C@@H](Cc1c[nH]c2ccccc12)C(=O)NCC(=O)O [compound 223] (HELM PEPTIDE1{[CSCC[C@H](NCc1ccccc1)C(=O)[*:2]].W.I.L.I.S.F.W.G}$$$$V2.0)	101%
< 7.5 µM	0.4 to 1 µM	1.82	CC[C@H](C)[C@H](NC(=O)[C@H](CC(C)C)NC(=O)[C@H](Cc1ccccc1)NC(=O)[C@H](Cc1c[nH]c2ccccc12)NC(=O)[C@@H](N)CCSC)C(=O)N[C@@H](CO)C(=O)N[C@@H](Cc1ccccc1)C(=O)N[C@@H](Cc1c[nH]c2ccccc12)C(=O)O [compound 112] (H-MWFLISFW-OH)	103%
> 30 µM	–	0.7	CC[C@H](C)[C@@H]1NC(=O)[C@H](CC(C)C)NC(=O)[C@H](Cc2ccccc2)NC(=O)[C@H](Cc2c[nH]c3ccccc23)NC(=O)[C@@H](N)CCCCNC(=O)CC[C@@H](C(=O)N[C@@H](Cc2c[nH]c3ccccc23)C(=O)NCC(=O)O)NC(=O)[C@H](CS)NC1=O [compound 173] (HELM PEPTIDE1{K.W.F.L.I.C.E.W.G}$PEPTIDE1,PEPTIDE1,1:R3-7:R3$$$V2.0)	107%
7.5 to 15 µM	–	0.7	CC[C@H](C)[C@H](NC(=O)[C@H](CC(C)C)NC(=O)[C@H](Cc1ccccc1)NC(=O)[C@H](Cc1c[nH]c2ccccc12)NC(=O)[C@@H](N)CCSC)C(=O)N[C@@H](CS)C(=O)N[C@@H](Cc1cncn1C)C(=O)N[C@@H](Cc1c[nH]c2ccccc12)C(=O)NCC(=O)O [compound 135] (HELM PEPTIDE1{M.W.F.L.I.C.[Cn1cncc1C[C@H](N[*:1])C(=O)[*:2]].W.G}$$$$V2.0)	107%
< 7.5 µM	> 30 µM	–	CC[C@H](C)[C@H](NC(=O)[C@H](CC(C)C)NC(=O)[C@H](Cc1ccccc1)NC(=O)[C@H](Cc1c[nH]c2ccccc12)NC(=O)[C@@H](N)CCSC)C(=O)N[C@@H](CO)C(=O)N[C@@H](C)C(=O)N[C@@H](Cc1c[nH]c2ccccc12)C(=O)NCC(=O)O [compound 160] (H-MWFLISAWG-OH)	102%
